# Measurements published in patent US20070149570A1, “Piperidine derivative and use thereof” (priority 2005, published 2007).
# Where a name gives a salt, the structure may show the parent alone.
# What was measured:
# [1] = target: T1, substance P receptors (Homo sapiens, UniProt P25103); test: Radioligand receptor binding inhibitory activity using receptor from human lymphoblast cells (IM-9), 125I-BHSP; settings: radioligand 125I-BHSP, 25° C., 30 minutes, read-out: IC50 (concentration necessary to cause 50% inhibition)
# T1 construct: The receptor was prepared from human lymphoblast cells (IM-9); endogenous in cells; host or cells: IM-9 human lymphoblast cells (membrane preparation)
# T1 sequence (P25103 whole entry): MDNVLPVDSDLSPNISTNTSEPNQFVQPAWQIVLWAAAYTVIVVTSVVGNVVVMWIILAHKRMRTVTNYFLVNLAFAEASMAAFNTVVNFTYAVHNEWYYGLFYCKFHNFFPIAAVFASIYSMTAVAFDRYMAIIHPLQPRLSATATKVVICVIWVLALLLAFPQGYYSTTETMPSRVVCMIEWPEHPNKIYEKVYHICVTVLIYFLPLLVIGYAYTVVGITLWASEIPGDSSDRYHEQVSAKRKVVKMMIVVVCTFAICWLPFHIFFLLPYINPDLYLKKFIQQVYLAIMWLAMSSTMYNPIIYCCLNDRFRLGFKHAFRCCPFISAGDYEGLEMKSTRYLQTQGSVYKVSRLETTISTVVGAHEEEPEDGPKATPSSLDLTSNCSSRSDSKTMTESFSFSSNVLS
# Method: Radioligand receptor binding inhibitory activity (Binding inhibitory activity using receptor from human lymphoblast cells (IM-9))
# The method of M. A. Cascieri et al., [Molecular Pharmacology, vol. 42, p. […] The receptor was prepared from human lymphoblast cells (IM-9). IM-9 cells (2×10^5 cells/mL) were incubated for 3 days (one liter), which was then subjected to centrifugation for 5 minutes at 500×G to obtain cell pellets. […] The residue was washed twice with 30 mL of the above-mentioned buffer, which was then preserved frozen (−80° C.) as a specimen of the receptor.
# The specimen was suspended in a reaction buffer (50 mM Tri-HCl buffer (pH 7.4), 0.02% bovine serum albumin, 1 mM phenylmethylsulfonyl fluoride, 2 μg/mL chymostatin, 40 μg/mL bacitracin and 3 mM manganese chloride) to have protein in the concentration of 0.5 mg/mL of protein and 100 μL portion of the suspension was used in the reaction. […] The amount of nonspecific binding was determined by adding substance P at a final concentration of 2×10^−6 M.
# After the reaction, using a cell harvester (290 PHD, Cambridge Technology, Inc., U.S.A.), filtration was carried out through a glass filter (GF/B, Whatman, U.S.A.), which was immersed in 0.1% polyethyleneimine for 24 hours and dried. After washing three times with 250 μL of 50 mM Tris-HCl buffer (pH 7.4) containing 0.02% bovine serum albumin, the radioactivity remaining on the filter was determined with a gamma counter.
melting point [°C],IC50 [1] [nM],SMILES
197 to 199,,"CC1(C)OC(=O)N(CC(=O)N2CC[C@H](NCc3cc(-c4ccc(C#N)cc4)ccc3OC(F)(F)F)[C@H](c3ccccc3)C2)C1=O (as salt: hydrochloride) (hydrate or solvate) [Example 137, 3′-[({(3R,4S)-1-[(5,5-dimethyl-2,4-dioxo-1,3-oxazolidin-3-yl)acetyl]-3-phenylpiperidin-4-yl}amino)methyl]-4′-(trifluoromethoxy)biphenyl-4-carbonitrile]"
162 to 164,,"O=C1CC(C(=O)N2CC[C@H](NCc3cc(-c4ccc(Cl)cc4F)ccc3OC(F)(F)F)[C@H](c3ccccc3)C2)CC(=O)N1 (as salt: hydrochloride) [Example 132, 4-{[(3R,4S)-4-({[4′-chloro-2′-fluoro-4-(trifluoromethoxy)biphenyl-3-yl]methyl}amino)-3-phenylpiperidin-1-yl]carbonyl}piperidine-2,6-dione]"

# More lines, now with the values behind:
SMILES,melting point [°C],IC50 [1] [nM]
"N#Cc1ccc(-c2ccc(OC(F)(F)F)c(CN[C@H]3CCN(C(=O)CO)C[C@H]3c3ccccc3)c2)c(F)c1 [Example 100, 2-fluoro-3′-({[(3R,4S)-1-glycoloyl-3-phenylpiperidin-4-yl]amino}methyl)-4′-(trifluoromethoxy)biphenyl-4-carbonitrile]",132 to 134,0.015
"N#Cc1ccc(-c2ccc(OC(F)(F)F)c(CN[C@H]3CCN(C(=O)C(N)=O)C[C@H]3c3ccccc3)c2)c(F)c1 [Example 104, 2-[(3R,4S)-4-({[4′-cyano-2′-fluoro-4-(trifluoromethoxy)biphenyl-3-yl]methyl}amino)-3-phenylpiperidin-1-yl]-2-oxoacetamide]",142 to 144,0.019
"CC1(C)OC(=O)N(CC(=O)N2CC[C@H](NCc3cc(-c4ccc(C#N)cc4F)ccc3OC(F)(F)F)[C@H](c3ccccc3)C2)C1=O (as salt: hydrochloride) (hydrate or solvate) [Example 97, 3′-[({(3R,4S)-1-[(5,5-dimethyl-2,4-dioxo-1,3-oxazolidin-3-yl)acetyl]-3-phenylpiperidin-4-yl}amino)methyl]-2-fluoro-4′-(trifluoromethoxy)biphenyl-4-carbonitrile]",198 to 200,
Cl.O=C1CC(C(=O)N2CC[C@H](NCc3cc(-c4ccc(Cl)cc4)ccc3OC(F)(F)F)[C@H](c3ccccc3)C2)CC(=O)N1,153,
